From patent publication US20210212321A1, “STABILIZED FUNGICIDAL COMPOSITION COMPRISING CYCLODEXTRIN” (Bayer CropScience LP, priority 2018, published 2021)

Legend:
Assay type in all cases: physicochemical
[1] = Storage of Prothioconazole SC for two months with or without nitrogen purging; prothioconazole desthio quantified by LC-MS; details: sample D compared to samples A and B
Experimental: All samples were stored in glass containers with exposure to ambient light at room temperature for two months. Certain samples were also wrapped with foil to limit exposure to ambient oxygen. At the conclusion of the storage period, prothioconazole desthio was quantified in each sample using LC-MS.
This study was conducted with the same group of samples stored for two months in containers made of plastic instead of glass, and similar results were observed.

[2] = Storage stability of prothioconazole/penflufen mixture with 25 wt % MeCD at various temperatures (HPLC); details: for % Degradation (PTZ) / % PTZ / % PFL: with 25 wt % MeCD
Experimental: Aqueous solutions of a mixture of prothioconazole (PTZ) at a concentration of about 1.5% (w/w), and penflufen at a concentration of about 1.65% (w/w), were prepared and physically mixed with MeCD at 25 wt %. These samples were stored for two weeks at 54° C., for eight weeks at 40° C., or for 6 months at 30° C. The initial amount of PTZ or PFL in each sample was measured together with the final amount of PTZ or PLF after storage using HPLC.

[3] = Storage of RAXIL PRO MD for two weeks with or without nitrogen purging; prothioconazole desthio quantified by LC-MS; details: sample D compared to samples A, B and C
Experimental: RAXIL® PRO MD is a commercial product containing 1.47% prothioconazole, 0.29% tebuconazole, and 0.59% metalaxyl in an aqueous formulation. Samples of RAXIL® PRO MD were subjected to nitrogen purging by bubbling nitrogen gas through the samples for about 5 minutes. Control samples were not purged with nitrogen. The samples were then divided into the groups outlined in Table 1. Samples were either maintained in the dark or exposed to ambient light. In addition, certain samples were wrapped in foil to minimize contact with ambient oxygen while others were not. All samples were stored at room temperature.
After two weeks of storage under these conditions, prothioconazole desthio was quantified in each sample using liquid chromatography mass spectrometry (LC-MS) using a SCIEX TRIPLE QUAD™6500 and a standard curve generated with a prothioconazole desthio chemical standard.

[4] = Storage stability of aqueous prothioconazole solutions with or without cyclodextrins (LC-MS); details: two weeks at 54° C.
Experimental: Aqueous solutions of prothioconazole (PTZ) at a concentration of about 1% to about 1.5% (w/w) were prepared. These samples were stored for two weeks at 54° C., for eight weeks at 40° C., or for 52 weeks at 20° C. The initial amount of PTZ in each sample was measured together with the final amount of PTZ after storage using LC-MS as outlined in Example 1. From these measurements the percentage of PTZ remaining after storage was calculated and ranged from about 94% to about 97% (see FIG. 1A).
In a separate experiment, the ability of two different cyclodextrins, 2-hydroxypropyl-β cyclodextrin (HPCD) and methyl-β cyclodextrin (MeCD), to stabilize PTZ was evaluated. Aqueous solutions of PTZ at a concentration of about 1% to about 1.5% (w/w) were mixed with 15% (w/w) HPCD or 15% (w/w) MeCD. A control sample contained no cyclodextrins. The samples were stored for two weeks at 54° C., and the percentage of PTZ remaining after storage was calculated as before using LC-MS.

[5] = Storage stability of RAXIL PRO MD + penflufen with increasing methyl cyclodextrin (HPLC); details: RAXIL PRO MD+PFL (1.38% w/w), highest concentration of cyclodextrin (MeCD); two weeks at 54° C.
Text: A sample containing PTZ without any PFL or cyclodextrin was included as the “Control” in FIGS. 3 and 4.

OC(Cc1ccccc1Cl)(Cn1nc[nH]c1=S)C1(Cl)CC1 (racemic) [Prothioconazole, 2-[2-(1-chlorocyclopropyl)-3-(2-chloro-phenyl)-2-hydroxy-propyl]-2,4-dihydro-3H-1,2,4-triazole-3-thione]
Level of degradation to prothioconazole desthio, sample exposed to light and ambient oxygen versus nitrogen-stabilized samples [1]: about ten times higher
% Degradation (PTZ) ([2]; Table 3, 30° C. for 6 months): 2.01%
% PTZ ([2]; Table 3, 30° C. for 6 months): 1.46%
% Degradation (PTZ) ([2]; Table 3, 40° C. for 8 weeks): 4.03%
% PTZ ([2]; Table 3, 40° C. for 8 weeks): 1.43%
% Degradation (PTZ) ([2]; Table 3, 54° C. for 2 weeks): 2.68%
% PTZ ([2]; Table 3, 54° C. for 2 weeks): 1.45%
% Degradation (PTZ) ([2]; Table 3, T0): 0%
% PTZ ([2]; Table 3, T0): 1.49%
% Degradation (PTZ) ([2]; Table 4, 30° C. for 6 months): 2.01%
% PTZ ([2]; Table 4, 30° C. for 6 months): 1.46%
% Degradation (PTZ) ([2]; Table 4, 40° C. for 8 weeks): 4.70%
% PTZ ([2]; Table 4, 40° C. for 8 weeks): 1.42%
% Degradation (PTZ) ([2]; Table 4, 54° C. for 2 weeks): 2.01%
% PTZ ([2]; Table 4, 54° C. for 2 weeks): 1.46%
% Degradation (PTZ) ([2]; Table 4, T0): 0%
% PTZ ([2]; Table 4, T0): 1.49%
Level of degradation to prothioconazole desthio, samples not purged with nitrogen versus nitrogen-stabilized samples and samples stored in the dark [3]: over ten times higher
degradation of PTZ ([4]; mixed with 15% (w/w) HPCD): no observable degradation
degradation of PTZ ([4]; mixed with 15% (w/w) MeCD): no observable degradation
reduction in degradation of PTZ [5]: 86%

Cc1nn(C)c(F)c1C(=O)Nc1ccccc1C(C)CC(C)C (stereo not shown) [Penflufen, N[2-(1,3-dimethylbutyl)phenyl]-5-fluoro-1,3-dimethyl pyrazole-4-carboxamide]
% Degradation (PFL) ([2]; 0 weeks, 1.65 % (w/w)): 0%
% PFL ([2]; Table 3, 30° C. for 6 months): 1.62%
% PFL ([2]; Table 3, 40° C. for 8 weeks): 1.54%
% PFL ([2]; Table 3, 54° C. for 2 weeks): 1.6%
% PFL ([2]; Table 3, T0): 1.68%
% PFL ([2]; Table 4, 30° C. for 6 months): 1.58%
% PFL ([2]; Table 4, 40° C. for 8 weeks): 1.60%
% PFL ([2]; Table 4, 54° C. for 2 weeks): 1.58%
% PFL ([2]; Table 4, T0): 1.64%
reduction in degradation of PFL [5]: 65%
